Results as given in PubChem BioAssay (NCI).
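A five-concentration, 48-hour dose response in 96-well plates underlies each endpoint, interpolated linearly between surrounding concentrations. The concentration for 50% growth inhibition is given as GI50. TGI is the concentration that stops growth completely.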

Tests used:
Assay in all cases: NCI tumour cell line growth inhibition, 48 h; in the data active = GI50 below about 0.43 µM; inactive = the rest
786-0 renal = system: 786-0 renal
A549 NSCLC = system: A549 NSCLC
ACHN renal = system: ACHN renal
BT-549 breast = system: BT-549 breast
CAKI-1 renal = system: CAKI-1 renal
CCRF-CEM leukemia = system: CCRF-CEM leukemia
COLO 205 colon = system: COLO 205 colon
DU-145 prostate = system: DU-145 prostate
EKVX NSCLC = system: EKVX NSCLC
HCC-2998 colon = system: HCC-2998 colon
HCT-116 colon = system: HCT-116 colon
HCT-15 colon = system: HCT-15 colon
HL-60(TB) leukemia = system: HL-60(TB) leukemia
HOP-62 NSCLC = system: HOP-62 NSCLC
HOP-92 NSCLC = system: HOP-92 NSCLC
HS 578T breast = system: HS 578T breast
HT29 colon = system: HT29 colon
IGROV1 ovarian = system: IGROV1 ovarian
K-562 leukemia = system: K-562 leukemia
KM12 colon = system: KM12 colon
LOX IMVI melanoma = system: LOX IMVI melanoma
M14 melanoma = system: M14 melanoma
MALME-3M melanoma = system: MALME-3M melanoma
MCF7 breast = system: MCF7 breast
MDA-MB-231 breast = system: MDA-MB-231 breast
MDA-MB-435 = system: MDA-MB-435
MDA-MB-468 breast = system: MDA-MB-468 breast
MOLT-4 leukemia = system: MOLT-4 leukemia
NCI-H226 lung = system: NCI-H226 lung
NCI-H23 lung = system: NCI-H23 lung
NCI-H460 lung = system: NCI-H460 lung
NCI-H522 lung = system: NCI-H522 lung
NCI/ADR-RES ovarian = system: NCI/ADR-RES ovarian
OVCAR-3 ovarian = system: OVCAR-3 ovarian
OVCAR-4 ovarian = system: OVCAR-4 ovarian
OVCAR-5 ovarian = system: OVCAR-5 ovarian
OVCAR-8 ovarian = system: OVCAR-8 ovarian
PC-3 prostate = system: PC-3 prostate
RPMI-8226 leukemia = system: RPMI-8226 leukemia
RXF 393 renal = system: RXF 393 renal
SF-268 CNS = system: SF-268 CNS
SF-295 CNS = system: SF-295 CNS
SF-539 CNS = system: SF-539 CNS
SK-MEL-28 melanoma = system: SK-MEL-28 melanoma
SK-MEL-5 melanoma = system: SK-MEL-5 melanoma
SK-OV-3 ovarian = system: SK-OV-3 ovarian
SN12C renal = system: SN12C renal
SNB-19 CNS = system: SNB-19 CNS
SNB-75 CNS = system: SNB-75 CNS
SR leukemia = system: SR leukemia
SW-620 colon = system: SW-620 colon
T-47D breast = system: T-47D breast
TK-10 renal = system: TK-10 renal
U251 CNS = system: U251 CNS
UACC-257 melanoma = system: UACC-257 melanoma
UACC-62 melanoma = system: UACC-62 melanoma
UO-31 renal = system: UO-31 renal
A498 renal = system: A498 renal
SK-MEL-2 melanoma = system: SK-MEL-2 melanoma

Cc1cc(C(NC(=O)CCCCCNc2cccc3c2C(=O)N(C2CCC(=O)CC2=O)C3=O)c2cccc(N(C)C)c2)c(O)c2ncccc12 (centres undefined)
3.76 µM: TGI (HCC-2998 colon)
0.524 µM: TGI (HOP-92 NSCLC)
0.462 µM: TGI (MDA-MB-468 breast)
0.93 µM: TGI (BT-549 breast)
> 12.6 µM: TGI (HOP-62 NSCLC)
inactive: GI50 (786-0 renal) 1.36 µM | GI50 (A549 NSCLC) 2.12 µM | GI50 (ACHN renal) 1.92 µM | GI50 (CAKI-1 renal) 1.14 µM | GI50 (COLO 205 colon) 1.08 µM | GI50 (DU-145 prostate) 3.03 µM | GI50 (EKVX NSCLC) 1.36 µM | GI50 (HCC-2998 colon) 0.941 µM | GI50 (HCT-116 colon) 0.932 µM | GI50 (HCT-15 colon) 0.91 µM | GI50 (HOP-62 NSCLC) 0.547 µM | GI50 (HS 578T breast) 0.482 µM | GI50 (HT29 colon) 2.36 µM | GI50 (IGROV1 ovarian) 0.686 µM | GI50 (K-562 leukemia) 0.824 µM | GI50 (KM12 colon) 1.73 µM | GI50 (LOX IMVI melanoma) 1.2 µM | GI50 (M14 melanoma) 0.585 µM | GI50 (MCF7 breast) 0.982 µM | GI50 (MDA-MB-435) 2.22 µM | GI50 (NCI-H226 lung) 0.782 µM | GI50 (NCI-H23 lung) 1.54 µM | GI50 (NCI-H460 lung) 1.14 µM | GI50 (NCI-H522 lung) 1.8 µM | GI50 (NCI/ADR-RES ovarian) 5.44 µM | GI50 (OVCAR-3 ovarian) 1.23 µM | GI50 (OVCAR-4 ovarian) 1.48 µM | GI50 (OVCAR-5 ovarian) 1.9 µM | GI50 (OVCAR-8 ovarian) 0.555 µM | GI50 (RPMI-8226 leukemia) 1.58 µM | GI50 (RXF 393 renal) 1.55 µM | GI50 (SF-268 CNS) 1.41 µM | GI50 (SF-295 CNS) 1.53 µM | GI50 (SF-539 CNS) 1.83 µM | GI50 (SK-MEL-28 melanoma) 2.06 µM | GI50 (SK-MEL-5 melanoma) 0.822 µM | GI50 (SK-OV-3 ovarian) 1.53 µM | GI50 (SN12C renal) 1.21 µM | GI50 (SNB-19 CNS) 1.56 µM | GI50 (SNB-75 CNS) 0.766 µM | GI50 (SR leukemia) 0.922 µM | GI50 (SW-620 colon) 0.564 µM | GI50 (T-47D breast) 0.739 µM | GI50 (TK-10 renal) 2.67 µM | GI50 (U251 CNS) 1.39 µM | GI50 (UACC-257 melanoma) 2.45 µM | GI50 (UACC-62 melanoma) 1.33 µM | GI50 (UO-31 renal) 0.745 µM
> 25.4 µM: TGI (UO-31 renal)
> 16.1 µM: TGI (LOX IMVI melanoma)
active: GI50 (BT-549 breast) 0.0851 µM | GI50 (CCRF-CEM leukemia) 0.0268 µM | GI50 (HL-60(TB) leukemia) 0.0199 µM | GI50 (HOP-92 NSCLC) 0.0365 µM | GI50 (MALME-3M melanoma) 0.0975 µM | GI50 (MDA-MB-231 breast) 0.0222 µM | GI50 (MDA-MB-468 breast) 0.0278 µM | GI50 (MOLT-4 leukemia) 0.0346 µM | GI50 (PC-3 prostate) 0.103 µM
5.02 µM: TGI (SK-OV-3 ovarian)
> 58.5 µM: TGI (786-0 renal) | TGI (A549 NSCLC) | TGI (ACHN renal) | TGI (CAKI-1 renal) | TGI (COLO 205 colon) | TGI (DU-145 prostate) | TGI (EKVX NSCLC) | TGI (HCT-116 colon) | TGI (HCT-15 colon) | TGI (HS 578T breast) | TGI (HT29 colon) | TGI (K-562 leukemia) | TGI (KM12 colon) | TGI (MCF7 breast) | TGI (MDA-MB-435) | TGI (MOLT-4 leukemia) | TGI (NCI-H23 lung) | TGI (NCI-H460 lung) | TGI (NCI-H522 lung) | TGI (NCI/ADR-RES ovarian) | TGI (OVCAR-3 ovarian) | TGI (OVCAR-4 ovarian) | TGI (OVCAR-5 ovarian) | TGI (OVCAR-8 ovarian) | TGI (PC-3 prostate) | TGI (RPMI-8226 leukemia) | TGI (RXF 393 renal) | TGI (SF-268 CNS) | TGI (SF-295 CNS) | TGI (SK-MEL-28 melanoma) | TGI (SN12C renal) | TGI (SNB-19 CNS) | TGI (SNB-75 CNS) | TGI (SR leukemia) | TGI (SW-620 colon) | TGI (T-47D breast) | TGI (TK-10 renal) | TGI (U251 CNS) | TGI (UACC-257 melanoma)
4.63 µM: TGI (UACC-62 melanoma)
3.78 µM: TGI (M14 melanoma)
1.36 µM: TGI (CCRF-CEM leukemia)
30.8 µM: TGI (SF-539 CNS)
> 15.8 µM: TGI (NCI-H226 lung)
1.83 µM: TGI (SK-MEL-5 melanoma)
6.17 µM: TGI (IGROV1 ovarian)
0.957 µM: TGI (MALME-3M melanoma)
0.136 µM: TGI (MDA-MB-231 breast)
1.67 µM: TGI (HL-60(TB) leukemia)

O=C(N/N=C/c1ccc(-c2cccc([N+](=O)[O-])c2)o1)c1[nH]c2ccc(Br)cc2c1-c1ccccc1
inactive: GI50 (786-0 renal) 2.75 µM | GI50 (A498 renal) > 100 µM | GI50 (A549 NSCLC) 3.66 µM | GI50 (ACHN renal) 4.76 µM | GI50 (BT-549 breast) 2.16 µM | GI50 (CAKI-1 renal) 30.9 µM | GI50 (COLO 205 colon) 2.75 µM | GI50 (DU-145 prostate) 4.2 µM | GI50 (EKVX NSCLC) 5.74 µM | GI50 (HCC-2998 colon) 4.63 µM | GI50 (HCT-116 colon) 3.04 µM | GI50 (HCT-15 colon) 3.59 µM | GI50 (HL-60(TB) leukemia) 1.94 µM | GI50 (HOP-62 NSCLC) 3.49 µM | GI50 (HOP-92 NSCLC) 46.1 µM | GI50 (HS 578T breast) 4.26 µM | GI50 (HT29 colon) 2.58 µM | GI50 (IGROV1 ovarian) 4.33 µM | GI50 (K-562 leukemia) 3.28 µM | GI50 (KM12 colon) 3.75 µM | GI50 (LOX IMVI melanoma) 3.71 µM | GI50 (M14 melanoma) 3.43 µM | GI50 (MALME-3M melanoma) 3.77 µM | GI50 (MCF7 breast) 3.56 µM | GI50 (MDA-MB-435) 3.2 µM | GI50 (MDA-MB-468 breast) 2.28 µM | GI50 (MOLT-4 leukemia) 3.45 µM | GI50 (NCI-H226 lung) 23.5 µM | GI50 (NCI-H23 lung) 4.87 µM | GI50 (NCI-H460 lung) 3.49 µM | GI50 (NCI-H522 lung) 1.73 µM | GI50 (NCI/ADR-RES ovarian) 2.53 µM | GI50 (OVCAR-3 ovarian) 3.47 µM | GI50 (OVCAR-4 ovarian) > 100 µM | GI50 (OVCAR-5 ovarian) 3.84 µM | GI50 (OVCAR-8 ovarian) 2.44 µM | GI50 (PC-3 prostate) 4.28 µM | GI50 (RPMI-8226 leukemia) 3.31 µM | GI50 (RXF 393 renal) 2.65 µM | GI50 (SF-268 CNS) 5.55 µM | GI50 (SF-295 CNS) 3.17 µM | GI50 (SF-539 CNS) 2.34 µM | GI50 (SK-MEL-2 melanoma) 2.68 µM | GI50 (SK-MEL-28 melanoma) 6.75 µM | GI50 (SK-MEL-5 melanoma) 2.22 µM | GI50 (SK-OV-3 ovarian) 3.61 µM | GI50 (SN12C renal) 3.99 µM | GI50 (SNB-19 CNS) 3.48 µM | GI50 (SNB-75 CNS) 4.56 µM | GI50 (SW-620 colon) 4.5 µM | GI50 (T-47D breast) > 100 µM | GI50 (TK-10 renal) > 100 µM | GI50 (U251 CNS) 3.34 µM | GI50 (UACC-257 melanoma) 5.79 µM | GI50 (UACC-62 melanoma) 4.46 µM
6 µM: TGI (MDA-MB-468 breast)
3.98 µM: TGI (NCI-H522 lung)
6.28 µM: TGI (BT-549 breast)
> 100 µM: TGI (A498 renal) | TGI (A549 NSCLC) | TGI (ACHN renal) | TGI (CAKI-1 renal) | TGI (DU-145 prostate) | TGI (EKVX NSCLC) | TGI (HCC-2998 colon) | TGI (HCT-15 colon) | TGI (HOP-62 NSCLC) | TGI (HOP-92 NSCLC) | TGI (HS 578T breast) | TGI (IGROV1 ovarian) | TGI (K-562 leukemia) | TGI (KM12 colon) | TGI (LOX IMVI melanoma) | TGI (M14 melanoma) | TGI (MALME-3M melanoma) | TGI (MCF7 breast) | TGI (MDA-MB-435) | TGI (MOLT-4 leukemia) | TGI (NCI-H226 lung) | TGI (NCI-H23 lung) | TGI (NCI-H460 lung) | TGI (OVCAR-3 ovarian) | TGI (OVCAR-4 ovarian) | TGI (OVCAR-5 ovarian) | TGI (PC-3 prostate) | TGI (RPMI-8226 leukemia) | TGI (SF-268 CNS) | TGI (SF-295 CNS) | TGI (SK-MEL-28 melanoma) | TGI (SK-OV-3 ovarian) | TGI (SN12C renal) | TGI (SNB-19 CNS) | TGI (SNB-75 CNS) | TGI (SW-620 colon) | TGI (T-47D breast) | TGI (TK-10 renal) | TGI (U251 CNS) | TGI (UACC-257 melanoma) | TGI (UACC-62 melanoma)
5.34 µM: TGI (SK-MEL-5 melanoma)
5.32 µM: TGI (HL-60(TB) leukemia)
13.3 µM: TGI (786-0 renal)
6.97 µM: TGI (HT29 colon)
5.81 µM: TGI (SF-539 CNS)
8.93 µM: TGI (SK-MEL-2 melanoma)
7.49 µM: TGI (COLO 205 colon)
10.4 µM: TGI (HCT-116 colon)
6.49 µM: TGI (NCI/ADR-RES ovarian)
5.5 µM: TGI (OVCAR-8 ovarian)
7.45 µM: TGI (RXF 393 renal)
